According to US20180049996A1, “THERAPEUTIC AGENT FOR CHRONIC RESPIRATORY DISEASE AND COMPOSITION FOR INHIBITING CARDIAC FIBROSIS” (NIPPON HYPOX LABORATORIES INCORPORATED, priority 2015, published 2018):

Assays:
[1] = system: Pulmonary Fibrosis Induced by Bleomycin; experiment: Body weight and relative weight of lungs, pulmonary fibrosis induced by bleomycin; format: in vivo, male SD rats; conditions: test groups 2 and 3: bleomycin 7.5 mg/kg + HTHQ 50 or 200 mg/kg/day oral; day 20; compared to bleomycin-single group, p<0.05
Method: (§1) Bleomycin is used to produce disease-model animals of interstitial pneumonia. The bleomycin and 2,3,5-trimethylhydroquinone-1-hexyl ether (HTHQ) as the hydroquinone derivative represented by the general formula (1) described above of the present invention were simultaneously administered to male SD rats of 10 week old after birth to examine the effect of the action. The test groups consisted of the control group to which sterile saline was administered; test group 1 to which bleomycin (7.5 mg/kg body weight) alone was administered; test group 2 to which bleomycin (7.5 mg/kg body weight) and HTHQ (50 mg/kg body weight/day) were administered in combination; and test group 3 to which bleomycin (7.5 mg/kg body weight) and HTHQ (200 mg/kg body weight/day) were administered in combination.
(§2) In test groups 1 to 3, bleomycin was orally administered in a single dose. In test groups 2 and 3, 2,3,5-trimethylhydroquinone-1-hexyl ether (HTHQ) was daily orally administered for 10 or 20 days starting from 24 h after the administration of bleomycin. In test group 1, olive oil, which was used as a solvent of HTHQ, was daily orally administered at 10 mL/kg/day starting from 24 h after the administration of bleomycin. The number of animals in each group was 16. 8 animals of each group were sacrificed on days 10 and 20 after the administration of bleomycin and measurement of body weight, lung autopsy, histopathologic examination of lungs and bronchoalveolar lavage examination were conducted.
The body weight of the rats in the control group increased over time during the test period. […] The weight of the interstitial tissue of lungs tends to increase and the relative weight of lungs tends to rise when the tissue fibroses. […] Thus, it was expected that the degree of the progression of pulmonary fibrosis of the rats in test groups 2 and 3, to which HTHQ was administered, was less than the rats in test group 1.

[2] = system: Pulmonary Fibrosis Induced by Bleomycin; experiment: Histopathologic examination of lungs, pulmonary fibrosis induced by bleomycin; format: in vivo, male SD rats; conditions: for Severity score: Alveolar space, Bleeding / Severity score: Alveolar space, Macrophage accumulation / Severity score: Alveolar space, Protein exudation / Severity score: Alveolar wall, Fibroblast accumulation / Severity score: Alveolar wall, Fibrosis of interstitial tissue / Severity score: Alveolar wall, Interstitial edema / Severity score: Alveolar wall, Mononuclear cell infiltration / Severity score: Circumvascular region, Perivascular edema / Severity score: Circumvascular region, Plasma cell infiltration / Severity score: Peribronchial and peribronchiolar regions, Fibrosis of interstitial tissue / Severity score: Peribronchial and peribronchiolar regions, Lymphoid follicle hyperplasia / Severity score: Type II alveolar epithelial cell, Adenomatous hyperplasia / Severity score: Type II alveolar epithelial cell, Atypia and dysplasia: day 20 after bleomycin
Method: as §1, §2
The main lung lesions observed in the rats in test group 1 (the bleomycin-single administration group) on day 10 after the administration were the peribronchial and peribronchiola enlargement of alveoli, the hyperplasia of the alveolar wall, the infiltration of monocytes and lymphocytes in alveolar walls and interstitial tissue, and the exudation of alveolar macrophage into alveolar spaces. These lesions were alleviated in rats in test groups 2 and 3 (the HTHQ-administered groups) compared to the tissue in test group 1.
The result of the histopathologic examination of lungs of the control group and the test groups on day 20 after the administration of bleomycin is shown in Table 1 below. “−” indicates “not found”, “+” indicates “mild”, “++” indicates “moderate”, and “+++” indicates “severe” in severity scores. In test group 1 (the bleomycin-single administration group), the hyperplasia and fibrosis of peribronchial and adjacent alveolar walls became remarkable compared to the tissue on day 10 after the administration and the morphology of alveolus almost disappeared due to the infiltration of lymphocytes and neutrophils. The alveolar macrophages infiltrated within alveolar spaces were buried in surrounding tissues.

[3] = system: Lung Inflammation Induced by Tobacco Smoke; experiment: BAL inflammatory cell numbers, lung inflammation induced by tobacco smoke (COPD model); format: in vivo, C57BL/6N mice; conditions: HTHQ 10 and 20 mg/kg/day oral; tobacco smoke 10 days + LPS; compared to COPD model group
Method: (§3) 6 week old male SPF C57BL/6N mice, 20 to 25 g of body weight, were purchased from CORETEC INC. (South Korea).
The tests were conducted as follows. The mice in the COPD (chronic obstructive pulmonary disease) model group of the test groups were exposed to tobacco smoke for 1 hour per day (8 cigarettes/day) for 10 days and LPS (5 μg/50 μL/mouse) was intranasally administered to the mice on day 8 after the start of the tests. Roflumilast, the positive control substance, was orally administered to the mice in the positive control substance-administered group at 10 mg/kg body weight/day, and then they were exposed to tobacco smoke for 10 days starting from 1 hour after the administration of roflumilast, and LPS (5 μg/50 μL/mouse) was intranasally administered to the mice on day 8 after the start of the tests. […]
(§4) The mice in the test groups were euthanized 72 hours after the LPS administration and the mice in the normal control group were euthanized on day 11 after the start of the tests by intraperitoneal injection of pentobarbital (Hanrimu pharmaceutical, South Korea) at 50 mg/kg and then the bronchi were excised. […] After preparing slide samples from 100 μL of BAL cell fluid using Cytospin (4° C., 1000 rpm×5 min), the cell numbers of inflammatory cells (neutrophil, macrophages) present in the BAL fluid were counted using a Diff-Quik stain kit.

[4] = system: TNF-α; experiment: TNF-α level in BAL fluid (ELISA), COPD model; format: in vivo, C57BL/6N mice; conditions: HTHQ 10 and 20 mg/kg/day oral; tobacco smoke 10 days + LPS; compared to COPD model group
Method: as §3
The tests were conducted as follows. The mice in the COPD (chronic obstructive pulmonary disease) model group of the test groups were exposed to tobacco smoke for 1 hour per day (8 cigarettes/day) for 10 days and LPS (5 μg/50 μL/mouse) was intranasally administered to the mice on day 8 after the start of the tests. […]
as §4
The supernatant of the BAL fluid stored was taken out of the super-cryostat, and TNF-α and IL-6 levels were measured as the levels of pro-inflammatory cytokines in the supernatant. A quantitative ELISA kit (a product from Invitrogen) and an ELISA analyzer (a product from Molecular Devices, LLC.) were used for the measurement and the measurement wavelength was 450 nm.

[5] = Test group 2: bleomycin 7.5 mg/kg + HTHQ 50 mg/kg/day oral
[6] = Test group 3: bleomycin 7.5 mg/kg + HTHQ 200 mg/kg/day oral

CCCCCCOc1cc(C)c(O)c(C)c1C [HTHQ, 2,3,5-trimethylhydroquinone-1-hexyl ether]
alleviated: histopathologic lung lesions ([2]; test groups 2 and 3: bleomycin 7.5 mg/kg + HTHQ 50 or 200 mg/kg/day oral, day 10, compared to test group 1)
significantly low: relative weight of lungs [1]
milder than test group 1: degree of histopathologic lung lesions ([2]; test groups 2 and 3: bleomycin 7.5 mg/kg + HTHQ 50 or 200 mg/kg/day oral, day 20, compared to test group 1)
effectively reduced: infiltration of inflammatory cells (neutrophil, macrophages) in BAL fluid [3] | TNF-α level in BAL fluid [4]
+: Severity score: Alveolar space, Bleeding [2, 5] | Severity score: Alveolar space, Macrophage accumulation [2, 5] | Severity score: Alveolar space, Protein exudation [2, 5] | Severity score: Alveolar wall, Interstitial edema [2, 5] | Severity score: Circumvascular region, Perivascular edema [2, 5] | Severity score: Circumvascular region, Plasma cell infiltration [2, 5] | Severity score: Peribronchial and peribronchiolar regions, Fibrosis of interstitial tissue [2, 5] | Severity score: Peribronchial and peribronchiolar regions, Lymphoid follicle hyperplasia [2, 5] | Severity score: Type II alveolar epithelial cell, Atypia and dysplasia [2, 5] | Severity score: Alveolar space, Macrophage accumulation [2, 6] | Severity score: Alveolar wall, Fibroblast accumulation [2, 6] | Severity score: Alveolar wall, Fibrosis of interstitial tissue [2, 6] | Severity score: Alveolar wall, Interstitial edema [2, 6] | Severity score: Peribronchial and peribronchiolar regions, Fibrosis of interstitial tissue [2, 6] | Severity score: Peribronchial and peribronchiolar regions, Lymphoid follicle hyperplasia [2, 6] | Severity score: Type II alveolar epithelial cell, Adenomatous hyperplasia [2, 6] | Severity score: Type II alveolar epithelial cell, Atypia and dysplasia [2, 6]
++: Severity score: Alveolar wall, Fibroblast accumulation [2, 5] | Severity score: Alveolar wall, Fibrosis of interstitial tissue [2, 5] | Severity score: Alveolar wall, Mononuclear cell infiltration [2, 5] | Severity score: Type II alveolar epithelial cell, Adenomatous hyperplasia [2, 5] | Severity score: Alveolar space, Protein exudation [2, 6] | Severity score: Alveolar wall, Mononuclear cell infiltration [2, 6]
−: Severity score: Alveolar space, Bleeding [2, 6] | Severity score: Circumvascular region, Perivascular edema [2, 6] | Severity score: Circumvascular region, Plasma cell infiltration [2, 6]
